2 compounds from ChEMBL document CHEMBL2169770, “The discovery and optimization of a novel class of potent, selective, and orally bioavailable anaplastic lymphoma kinase (ALK) inhibitors with potential utility for the treatment of cancer” (J Med Chem, 2012) can be followed below.

Data set [1] in a line: Oral bioavailability in Beagle dog. The class given is ADME, organism-based, Canis lupus familiaris. The settings on record: in vivo.
Data set [2] in a line: Oral bioavailability in rat. The class given is ADME, organism-based. Particulars: in vivo.
A short description of data set [3]: Volume of distribution at steady state in rat. The class given is ADME, organism-based. Particulars: in vivo, read-out: Vdss.
Data set [4] is described as follows: Volume of distribution at steady state in Beagle dog. The format is ADME, organism-based, Canis lupus familiaris. Particulars: in vivo, read-out: Vdss.

For `CC(C)NC(=O)[C@H]1CC[C@@H](n2/c(=N/C(=O)c3cc(F)cc(F)c3)[nH]c3ccc(CN4CCC(C(C)(C)O)CC4)cc32)CC1`, the bioavailability – broadly, the share of a dose that reaches the circulation, judged against a reference dose that is usually intravenous – worked out at 71% in data set [1] and 11% in data set [2]. For the same compound, the values for the Vd in data set [3] and in data set [4] were 5.42 L/kg and 1.82 L/kg, respectively.

Consider `CC(C)NC(=O)[C@H]1CC[C@@H](n2/c(=N/C(=O)c3ccc(F)cc3)[nH]c3ccc(CN4CCC(C(C)(C)O)CC4)cc32)CC1`, for which the values for the bioavailability in data set [1] and in data set [2] were 52% and 20%, respectively. The values for the Vd in data set [3] and in data set [4] were 6.4 L/kg and 1.58 L/kg, respectively.
